As usually defined, the EC50 is the concentration needed to bring the measured effect to its halfway point. What is called Emax is the size of the effect at its maximum, as opposed to the concentration needed. For orientation: Kd means the constant that tells how readily two partners part at equilibrium. One may read the IC50 as the concentration that gives 50% inhibition.

Like-named read-outs stand apart in the source and are kept apart here. Some results are limits rather than exact numbers.

In data set [1] the target is T1, human PPARγ (hPPARγ) (Homo sapiens, UniProt P37231).
T1 construct: expressed in transfected cells; host or cells: HepG2 (human hepatoblastoma), transient calcium phosphate transfection
T1 sequence (P37231 238-503 limits assumed): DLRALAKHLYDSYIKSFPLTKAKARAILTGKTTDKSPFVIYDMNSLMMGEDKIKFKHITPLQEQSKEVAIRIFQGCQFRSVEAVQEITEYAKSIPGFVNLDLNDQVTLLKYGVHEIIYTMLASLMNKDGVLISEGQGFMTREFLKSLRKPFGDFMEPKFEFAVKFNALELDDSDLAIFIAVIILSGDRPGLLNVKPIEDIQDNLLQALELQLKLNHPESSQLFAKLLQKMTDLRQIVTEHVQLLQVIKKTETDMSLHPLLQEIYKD
Description: GAL-4 PPAR chimeric receptor transactivation assay in transiently transfected HepG2 cells. The format is cell-based. The conditions noted are these: for EC50: Gal4-hPPARγ-LBD, HepG2 cells, concentration-response curve; for Emax: maximum induction of Rosiglitazone defined as 100%; for agonist activity on hPPARα, hPPARγ, hPPARβ/δ subtypes: tested at 5 μM and 25 μM, compared with reference agonists.

For data set [2], the target named is T2, PPARγ (Homo sapiens, UniProt P37231).
T2 sequence (P37231 1-505): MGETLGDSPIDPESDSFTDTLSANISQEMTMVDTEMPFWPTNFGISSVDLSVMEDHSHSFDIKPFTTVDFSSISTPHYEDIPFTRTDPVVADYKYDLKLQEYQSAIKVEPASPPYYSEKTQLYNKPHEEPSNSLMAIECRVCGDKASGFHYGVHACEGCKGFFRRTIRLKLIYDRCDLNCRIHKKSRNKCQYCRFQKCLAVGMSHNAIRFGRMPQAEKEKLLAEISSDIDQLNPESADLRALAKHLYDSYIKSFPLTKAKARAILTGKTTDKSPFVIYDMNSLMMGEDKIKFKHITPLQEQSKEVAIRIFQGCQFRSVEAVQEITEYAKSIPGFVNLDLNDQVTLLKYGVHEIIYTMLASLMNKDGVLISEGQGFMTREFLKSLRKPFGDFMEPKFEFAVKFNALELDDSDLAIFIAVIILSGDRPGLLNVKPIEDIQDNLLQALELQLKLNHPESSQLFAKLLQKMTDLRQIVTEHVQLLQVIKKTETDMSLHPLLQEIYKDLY
Put plainly: SPR-based Biacore binding assay on immobilized PPARγ. The conditions noted are these: injected 0.5 to 10 µM. How it is done: […]. SPR analyses were carried out on a BIACORE 3000 instrument (GE-Healthcare). A PPARγ, surface was generated using a research-grade CM5 sensor chips (GE Healthcare). The protein (100 µg/ml in 10 mM CH3COONa, pH 5.0) was immobilized using a standard amine-coupling protocol, to obtain densities of 4 kRU. Testing compounds were dissolved in 100% DMSO to obtain 10 mM solutions, and then diluted in PBS containing variable amounts of DMSO, achieving a final DMSO concentration of 0.1%. For each molecule a five-point concentration series (0.5 µM, 1 µM, 2,5 µM, 5 µM and 10 µM) was set up. SPR experiments and data elaboration were carried out as reported elsewhere.

Data set [3] concerns NIH/3T3 mouse embryonic fibroblast cells. Description: XTT cytotoxicity assay on NIH/3T3 cells. Conditions: for cell viability compared with Rosiglitazone: especially at 316 and 1000 μM. How it is done: XTT is reduced to soluble formazan by this enzyme and formazan is quantified and directly proportional to the number of viable cells. […] NIH/3T3 cells were seeded at 1 × 10^4 cells into each well of 96-well plates. […] The XTT assay (Xenometrix, Allschwil, Switzerland) was performed according to the manufacturer’s instructions, after 24 h incubation with the compounds. The absorbance was determined after 2 h incubation at 480 nm with a reference wavelength of 680 nm using a microplate reader (BioTek, USA). […] The stock solutions of the compounds were prepared in DMSO and further dilutions were made with fresh culture medium. The final DMSO concentration was under 0.1%. Rosiglitazone and Pioglitazone were used as positive controls. All data were obtained from 3 independent experiments in quadruplicates.
For orientation: Tetrazolium assays rely on reduction of a dye to a coloured formazan, in cell work by metabolically active cells.

Data set [4] in a line: Human liver microsomal stability. The format is in vitro ADME. Conditions: 37.5 °C, LM conc 0.4 mg/mL; for half-life: read-out: T1/2,int. How it is done:
The oral bioavailability of compounds in terms of Caco-2 and MDCK-II permeability and the P-glycoprotein (P-gp) efflux ratio were assessed. The in vitro intrinsic half-life (T1/2,int) and the apparent intrinsic clearance (CLint,app) of compounds were also measured after incubation with human liver microsomes at 37.5 °C[65]. […] Quantification was done by LC-MS/MS. P-gp substrate activity was assessed by the efflux ratio (the ratio of Papp in the B-to-A direction over that in the A-to-B direction). […] P-gp is an ATP-dependent transporter on the apical plasma membrane of enterocytes that functions to limit the entry of drugs into the cell.
Highly cleared compounds in vitro are likely to be rapidly cleared in vivo resulting in a short duration of action.
In general terms: Microsomes from liver hold many membrane-bound enzymes, among them those of drug oxidation.

For the compound `CCCCNC(=O)CN1C(=O)S/C(=C\c2ccc(Cl)cc2)C1=O` [3a], in data set [1], the EC50 was found to be 5.9 ± 0.6 µM and the “agonist activity on hPPARα, hPPARγ, hPPARβ/δ subtypes” value (“agonist activity … hPPARβ/δ subtypes” below) is “selective activity towards PPARγ”. The Emax in data set [1] (HepG2, read-out: Emax) turned out to be 31.6 ± 1%. The compound further returned an equilibrium dissociation constant (Kd) in data set [2] of 32 ± 1.5 µM. For the same compound, it took 966 ± 10 µM to reach half-maximal inhibition in data set [3] (Mus musculus, NIH3T3, 24 h) (IC50). For the same compound, the “cell viability compared with Rosiglitazone” value in data set [3] (NIH/3T3 cells) is given as “significantly higher viability than Rosiglitazone”. The half-life in data set [4] (human liver microsomes) came to 53.3 min. Besides, in data set [4] (human, liver microsomes, read-out: CLint,app), the microsomal CLint was 32.5 µL/min/mg.

Take `CCN(CC)C(=O)CN1C(=O)S/C(=C\c2ccccc2)C1=O` [1i]: in data set [1], a half-maximal response (EC50) required 9.6 ± 0.8 µM and the “agonist activity … hPPARβ/δ subtypes” value is “weak to moderate selective activity towards PPARγ”. For the same compound, the Emax in data set [1] (HepG2, read-out: Emax) came out at 23 ± 5%. For the same compound, in data set [2], the Kd was found to be 35.7 ± 2.6 µM. In addition, the IC50 in data set [3] (Mus musculus, NIH3T3, 24 h) is greater than 1000 µM. The “cell viability compared with Rosiglitazone” value in data set [3] (NIH/3T3 cells) is “significantly higher viability than Rosiglitazone”. In data set [4] (human liver microsomes), the half-life is 92.5 min.

On to `CCCCNC(=O)CN1C(=O)S/C(=C\c2ccccc2)C1=O` [1a], for which, in data set [1], the EC50 worked out at 7 ± 1.3 µM; the Emax came to 5.3 ± 0.3%; the “agonist activity … hPPARβ/δ subtypes” value is “weak to moderate selective activity towards PPARγ”. Moreover, the Kd in data set [2] was 38.3 ± 1.8 µM. Moreover, the IC50 in data set [3] (NIH/3T3 cells, XTT, 24 h incubation) is greater than 1000 µM. For the same compound, in data set [4] (human liver microsomes), the “CLint,app” value was 169.81 µL/min/mg and the “T1/2,int” value was 10.20 min.
